Experiment: xn = mol fraction of the nth substance listed
Conditions: 100 kPa

CCOP(=O)([O-])OCC.CC[n+]1ccn(C)c1 + CCO
viscosity (293.15 K, x1 = 0.1002): 3.82 mPa·s | viscosity (293.15 K, x1 = 0.1992): 8.71 mPa·s | viscosity (293.15 K, x1 = 0.2987): 18.6 mPa·s | viscosity (293.15 K, x1 = 0.4007): 35.9 mPa·s | viscosity (293.15 K, x1 = 0.5007): 65.5 mPa·s | viscosity (293.15 K, x1 = 0.5993): 106.8 mPa·s | viscosity (293.15 K, x1 = 0.8): 256 mPa·s | viscosity (298.15 K, x1 = 0.1002): 3.46 mPa·s | viscosity (298.15 K, x1 = 0.1992): 7.58 mPa·s | viscosity (298.15 K, x1 = 0.2987): 15.84 mPa·s | viscosity (298.15 K, x1 = 0.5007): 52 mPa·s | viscosity (298.15 K, x1 = 0.5993): 83 mPa·s | viscosity (298.15 K, x1 = 0.8): 187 mPa·s | viscosity (298.15 K, x1 = 0.8985): 271 mPa·s | viscosity (298.15 K, x1 = 1): 397 mPa·s | viscosity (303.15 K, x1 = 0.1002): 3.1 mPa·s | viscosity (303.15 K, x1 = 0.1992): 6.67 mPa·s | viscosity (303.15 K, x1 = 0.2987): 13.57 mPa·s | viscosity (303.15 K, x1 = 0.5007): 41.8 mPa·s | viscosity (303.15 K, x1 = 0.5993): 64.6 mPa·s | viscosity (303.15 K, x1 = 0.7003): 102.1 mPa·s | viscosity (303.15 K, x1 = 1): 285 mPa·s | viscosity (308.15 K, x1 = 0.1002): 2.8 mPa·s | viscosity (308.15 K, x1 = 0.1992): 5.96 mPa·s | viscosity (308.15 K, x1 = 0.2987): 11.74 mPa·s | viscosity (308.15 K, x1 = 0.4007): 20.9 mPa·s | viscosity (308.15 K, x1 = 0.5007): 34.4 mPa·s | viscosity (308.15 K, x1 = 0.5993): 51.6 mPa·s | viscosity (308.15 K, x1 = 0.8): 107.6 mPa·s | viscosity (308.15 K, x1 = 0.8985): 146.8 mPa·s | viscosity (308.15 K, x1 = 1): 209 mPa·s | viscosity (313.15 K, x1 = 0.1002): 2.58 mPa·s | viscosity (313.15 K, x1 = 0.1992): 5.38 mPa·s | viscosity (313.15 K, x1 = 0.2987): 10.35 mPa·s | viscosity (313.15 K, x1 = 0.4007): 18 mPa·s | viscosity (313.15 K, x1 = 0.5007): 28.6 mPa·s | viscosity (313.15 K, x1 = 0.5993): 41.6 mPa·s | viscosity (313.15 K, x1 = 0.7003): 63.3 mPa·s | viscosity (313.15 K, x1 = 0.8): 82.5 mPa·s | viscosity (313.15 K, x1 = 0.8985): 112.5 mPa·s | viscosity (318.15 K, x1 = 0.1002): 2.39 mPa·s | viscosity (318.15 K, x1 = 0.1992): 4.92 mPa·s | viscosity (318.15 K, x1 = 0.2987): 9.23 mPa·s | viscosity (318.15 K, x1 = 0.4007): 15.6 mPa·s | viscosity (318.15 K, x1 = 0.5007): 24 mPa·s | viscosity (318.15 K, x1 = 0.5993): 34.2 mPa·s | viscosity (318.15 K, x1 = 0.7003): 50.3 mPa·s | viscosity (318.15 K, x1 = 0.8): 65.4 mPa·s | viscosity (318.15 K, x1 = 1): 117.2 mPa·s | viscosity (323.15 K, x1 = 0.1002): 2.28 mPa·s | viscosity (323.15 K, x1 = 0.1992): 4.57 mPa·s | viscosity (323.15 K, x1 = 0.2987): 8.34 mPa·s | viscosity (323.15 K, x1 = 0.4007): 13.64 mPa·s | viscosity (323.15 K, x1 = 0.5007): 20.8 mPa·s | viscosity (323.15 K, x1 = 0.5993): 28.8 mPa·s | viscosity (323.15 K, x1 = 0.8): 52.6 mPa·s | viscosity (323.15 K, x1 = 0.8985): 68.7 mPa·s | viscosity (323.15 K, x1 = 1): 91.7 mPa·s | viscosity (328.15 K, x1 = 0.2987): 7.65 mPa·s | viscosity (328.15 K, x1 = 0.4007): 12.11 mPa·s | viscosity (328.15 K, x1 = 0.5007): 18.1 mPa·s | viscosity (328.15 K, x1 = 0.7003): 33.5 mPa·s | viscosity (328.15 K, x1 = 0.8): 42.7 mPa·s | viscosity (328.15 K, x1 = 0.8985): 54.6 mPa·s | viscosity (328.15 K, x1 = 1): 71.2 mPa·s | viscosity (333.15 K, x1 = 0.1002): 2.05 mPa·s | viscosity (333.15 K, x1 = 0.1992): 4.06 mPa·s | viscosity (333.15 K, x1 = 0.2987): 7 mPa·s | viscosity (333.15 K, x1 = 0.5007): 15.82 mPa·s | viscosity (333.15 K, x1 = 0.5993): 20.8 mPa·s | viscosity (333.15 K, x1 = 0.7003): 28.1 mPa·s | viscosity (333.15 K, x1 = 0.8): 35 mPa·s | viscosity (333.15 K, x1 = 0.8985): 44.5 mPa·s | viscosity (333.15 K, x1 = 1): 57.3 mPa·s | viscosity (338.15 K, x1 = 0.1002): 1.94 mPa·s | viscosity (338.15 K, x1 = 0.1992): 3.86 mPa·s | viscosity (338.15 K, x1 = 0.2987): 6.48 mPa·s | viscosity (338.15 K, x1 = 0.4007): 9.9 mPa·s | viscosity (338.15 K, x1 = 0.5007): 13.95 mPa·s | viscosity (338.15 K, x1 = 0.5993): 18.1 mPa·s | viscosity (338.15 K, x1 = 0.8): 29.3 mPa·s | viscosity (338.15 K, x1 = 0.8985): 36.5 mPa·s | viscosity (338.15 K, x1 = 1): 46.2 mPa·s

CCO + CCOP(=O)([O-])OCC.CC[n+]1ccn(C)c1
viscosity (293.15 K, x2 = 0): 1.18 mPa·s | viscosity (298.15 K, x2 = 0): 1.11 mPa·s | viscosity (303.15 K, x2 = 0): 0.98 mPa·s | viscosity (308.15 K, x2 = 0): 0.89 mPa·s | viscosity (313.15 K, x2 = 0): 0.82 mPa·s | viscosity (323.15 K, x2 = 0): 0.69 mPa·s | viscosity (328.15 K, x2 = 0): 0.65 mPa·s | viscosity (333.15 K, x2 = 0): 0.6 mPa·s | viscosity (338.15 K, x2 = 0): 0.56 mPa·s

Reference: a compilation of properties of binary mixtures (doi:10.1021/acs.jced.1c00924)
